For series [1], the system named is Streptococcus faecalis ATCC 10541. As to the kind of experiment: Antibacterial activity (minimum growth inhibitory concentration), agar dilution method. Format: cell-based. The settings on record: Enterococcus faecalis, ATCC10541; Streptococcus faecalis ATCC 10541, pH 7.0, agar dilution method; read-out: minimum growth inhibitory concentration, SF. The procedure: (§1) Antibacterial activities of Compounds (I) against various bacteria are shown by the minimum growth inhibitory concentration (μg/ml) in Table 3. The minimum growth inhibitory concentration was measured at pH 7.0 according to the agar dilution method. In the table, bacteria are indicated by the following letters.
SF: Streptococcus faecalis ATCC 10541

The test system of series [2] is Staphylococcus aureus ATCC 6538P. The description is as above. Type of series: cell-based. The settings on record: ATCC6538P, pH 7.0, agar dilution method, read-out: minimum growth inhibitory concentration, SA. Here is the method: as §1
SA: Staphylococcus aureus ATCC 6538P

Series [3] relates to Bacillus subtilis 10707. The description is as above. Format: cell-based. The following applies: Bacillus subtilis 10707, pH 7.0, agar dilution method; read-out: minimum growth inhibitory concentration, BS. Here is the method: as §1
BS: Bacillus subtilis 10707

The subject of series [4] is Proteus vulgalis ATCC 6897. Described as above. Format: cell-based. The settings on record: pH 7, read-out: minimum growth inhibitory concentration, PV. Here is the method:
as §1
PV: Proteus vulgalis ATCC 6897

The test system of series [5] is Klebsiella pneumoniae ATCC 10031. The description is as above. The settings on record: ATCC10031; Klebsiella pneumoniae ATCC 10031, pH 7.0, agar dilution method; read-out: minimum growth inhibitory concentration, KP. Format: cell-based. Here is the method:
as §1
KP: Klebsiella pneumoniae ATCC 10031

The subject of series [6] is Sarcoma 180 solid tumour. The series can be described thus: animal or person. The following applies: for CIc: CI of test compound divided by CI of mitomycin C as control in the same condition; for ED50: Mus musculus, Sarcoma-180, iv, 168 h; for CI (LD50/ED50): chemotherapeutic index. The text has this: CIc : Value given by division of CI of each test compound by CI of
determination of antitumour activity of the test compound. A CIc
5×10^6 cells of Sarcoma 180 solid tumour were intraperitoneally implanted into ddY mice. 7 days later, ascites cells were sampled. The cells were washed once with a sterilized physiological sodium chloride solution and were used to prepare a cell suspension containing 5×10^7 cells per ml with a sterilized physiological sodium chloride solution. On each occasion, 0.1 ml of the cell suspension was subcutaneously implanted into the right axilla of a male mouse (ddY strain; body weight 20±2 g).
The anti-tumour activity was determined in the following manner. 7 days after the implantation, the major axis (a) and the minor axis (b) of the tumour were measured to calculate a value of "a×b^2 /2" which corresponds to the volume of the tumour. The anti-tumour activity was expressed by the ratio (T/C) of the volume (T) of the tumours of the group of animals administered with the test compound to the corresponding volume (C) of tumours of the untreated animals.
On graph paper, T/C was indicated by an arithmetic scale on the longitudinal axis and the administered amount of the test compound was indicated by a logarithmic scale on the lateral axis.

Series [7] is described as follows: Acute toxicity. The following applies: mouse, in vivo, ip; ddY mice, intraperitoneally once, 14 days observation. The procedure:
Each animal of the test group consisting of 5 ddY mice was administered intraperitoneally once with a test compound. […] The LD50 was determined by Beherns Kaerber's method.

Series [8] deals with peripheral leucocytes. As to the kind of experiment: Effect on the peripheral leucocytes number. The following applies: minimum dose reducing peripheral leucocytes number to 4000/mm^3; tumour-carrying ddY mice, intraperitoneal, 4 days after administration. Type of series: in vivo, mouse (ddY strain). Here is the method: WBC4000 : Minimum dose of a test compound which reduces the
peripheral leucocytes number to 4000/mm^3.
Sarcoma 180 solid tumour cells (5×10^6) were subcutaneously implanted into the right axilla of each mouse (body weight 20±2 g) of a group consisting of 5 male mice (ddY strain). 24 hours after implantation,a test compound was intraperitoneally administered to each animal. 4 days after the administration, blood (each 0.02 ml) was collected from the suborbital plexus vein of each tumour-carrying animal. The collected sample of blood was dispersed in 9.98 ml of Cell-Kit Seven solution. One drop of saponin solution was added to the sample to dissolve erythrocytes and then a microcell counter was used to count the number of leucocytes. […] The relationship between the number of peripheral leucocytes and the dose of the test compound was plotted and the dose (i.e., WBC4000) corresponding to 4000 peripheral leucocytes/mm^3 (about half the number of leucocytes of normal mice) was obtained.

Series [9] can be described thus: Solubility in water. The settings on record: aqueous buffer; 0.03M phosphate buffer (pH 7.0), 22° C., 15 minutes. Format: physicochemical. The procedure:
1 mg of a test compound was added to 100 μl of 0.03M phosphate buffer (pH 7.0). The mixture was stirred at 22° C. for 15 minutes and filtered through Ekicrodisc 3 (disposable filter unit, Gelman Sciences Japan Co.) to remove insoluble matters. The filtrate is a saturated solution of the test compound. Predetermined amount of the saturated solution was injected into a high performance liquid chromatograph [column: YMC-A212 (C8) .phi.6 mm, 150 mm, eluting solvent: 0.01M-ammonium acetate/methanol, wave length for detection: 254 nm] and peak area of the chromatogram was calculated. Separately, a solution of the test compound in methanoL having a certain concentration of the compound was similarly subjected to the chromatography to make the calibration curve. The solubility of the test compound was calculated by the calibration curve.

In brackets after ≈: the same amount, converted by molar mass. Some results are limits rather than exact numbers.

`CO[C@@]12[C@H](COC(N)=O)C3=C(C(=O)C(C)=C(NCCCCCCSC(C)=O)C3=O)N1C[C@@H]1N[C@@H]12` [Compound 11]: the MIC in series [1] was 0.16 µg/mL (≈ 0.325 µM); in series [2], 0.16 µg/mL (≈ 0.325 µM); in series [3] it was 0.16 µg/mL (≈ 0.325 µM); in [4], 2.5 µg/mL (≈ 5.08 µM); in series [5], 1.3 µg/mL (≈ 2.64 µM). Further, the CIc in series [6] worked out at 3.9. This compound had an ED50 in series [6] of 27 mg/kg. The “CI (LD50/ED50)” value in [6] is listed as above 7.4. Besides, the median lethal dose (LD50) at 336 h in [7] is above 200 mg/kg. This compound also displayed a WBC4000 in series [8] of 31.3 mg/kg. For the same compound, in series [9], the solubility at 0.25 h amounted to 210 µg/mL (≈ 426 µM).

As for `CO[C@@]12[C@H](COC(N)=O)C3=C(C(=O)C(C)=C(NCCSC(=O)c4ccccc4)C3=O)N1C[C@@H]1N[C@@H]12` [Compound 13], the MIC in [1] was 0.039 µg/mL (≈ 0.0782 µM); in [2], below 0.02 µg/mL; in series [3], below 0.02 µg/mL; in series [4], 5 µg/mL (≈ 10 µM); in series [5], 1.3 µg/mL (≈ 2.61 µM). Moreover, the CIc in series [6] is listed as 0.91. The compound further returned a 50% effective dose (ED50) in series [6] of 4.1 mg/kg. Moreover, the “CI (LD50/ED50)” value in series [6] is 1.5. In addition, the LD50 at 336 h in series [7] was determined as 6 mg/kg. The compound further gave a WBC4000 in [8] above 5 mg/kg. This compound also registered a solubility at 0.25 h in [9] of 73 µg/mL (≈ 146 µM).

Consider `CO[C@@]12[C@H](COC(N)=O)C3=C(C(=O)C(C)=C(NCCSC(=O)c4ccc(Br)cc4)C3=O)N1C[C@@H]1N[C@@H]12` [Compound 21], for which the MIC in series [1] is 0.039 µg/mL (≈ 0.0675 µM); in series [2] it was below 0.02 µg/mL; in [3] it was below 0.02 µg/mL; in series [4], 5 µg/mL (≈ 8.66 µM); in series [5], 1.3 µg/mL (≈ 2.25 µM). The compound further had a CIc in series [6] of 1.9. It took a dose of 2 mg/kg to reach the 50% effect level in series [6] (ED50). Moreover, in series [6], the “CI (LD50/ED50)” value was determined as 4.7. This compound yielded an LD50 at 336 h in series [7] of 9.4 mg/kg. The WBC4000 in [8] is reported as 11.5 mg/kg. Besides, in series [9], the solubility at 0.25 h amounted to 4.7 µg/mL (≈ 8.14 µM).

On to `CO[C@@]12[C@H](COC(N)=O)C3=C(C(=O)C(C)=C(NCCSC(C)=S)C3=O)N1C[C@@H]1N[C@@H]12` [Compound 26], for which the MIC in series [1] was below 0.02 µg/mL; in series [2], below 0.02 µg/mL; in [3] it was below 0.02 µg/mL; in series [4] it was 0.63 µg/mL (≈ 1.39 µM); in [5] it was 0.078 µg/mL (≈ 0.172 µM). The CIc in series [6] stood at 1.6. This compound registered a median effective dose (ED50) in series [6] of 1.2 mg/kg. In addition, the “CI (LD50/ED50)” value in [6] is on record as 5.5. In series [7], this compound displayed an LD50 at 336 h of 6.6 mg/kg. Besides, in series [8], the WBC4000 came out at 7.6 mg/kg. The same compound displayed a solubility at 0.25 h in series [9] of 260 µg/mL (≈ 575 µM).

(Values after patent US4771068A, “Mitomycin derivatives having anti-tumor and antibacterial utility” (priority 1985, dated 1988).)
